Read-outs that look alike come from different tables or passages of the source.
What was measured:
[1] = molecular target: Human α2δ-1 subunit of Cav2.2 calcium channel (Homo sapiens, UniProt P54289); test: Human α2δ-1 subunit of Cav2.2 calcium channel assay ([3H]-Gabapentin); assay type: binding
How it was run: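 α2δ-1-enriched membranes (2.5 μg) were incubated with 15 nM [3H]-gabapentin in 10 mM Hepes-KOH pH 7.4 for 60 min at 27 °C. Non-specific binding was defined with 10 μM pregabalin. Compounds were tested at five concentrations, with filtration and scintillation counting.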

human μ-opioid receptor = molecular target: T1, human μ-opioid receptor (Homo sapiens, UniProt P35372); test: Human μ-opioid receptor radioligand assay ([3H]-DAMGO); assay type: binding
T1 construct: expressed in transfected cells; host or cells: CHO-K1
How it was run: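 Transfected CHO-K1 membranes (20 μg) incubated with 1 nM [3H]-DAMGO in 50 mM Tris-HCl, 5 mM MgCl2, pH 7.4, 60 min at 27 °C; non-specific binding with 10 μM naloxone. Test compound at five concentrations; bound radioactivity counted after filtration by scintillation.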

[2] = human α2δ-1 enriched membranes, 15 nM [3H]-Gabapentin, read-out: Binding α2δ-1 (Ki)
[3] = transfected CHO-K1 cell membranes, 1 nM [3H]-DAMGO, read-out: Binding μ (Ki)

T1 sequence (P35372 whole entry): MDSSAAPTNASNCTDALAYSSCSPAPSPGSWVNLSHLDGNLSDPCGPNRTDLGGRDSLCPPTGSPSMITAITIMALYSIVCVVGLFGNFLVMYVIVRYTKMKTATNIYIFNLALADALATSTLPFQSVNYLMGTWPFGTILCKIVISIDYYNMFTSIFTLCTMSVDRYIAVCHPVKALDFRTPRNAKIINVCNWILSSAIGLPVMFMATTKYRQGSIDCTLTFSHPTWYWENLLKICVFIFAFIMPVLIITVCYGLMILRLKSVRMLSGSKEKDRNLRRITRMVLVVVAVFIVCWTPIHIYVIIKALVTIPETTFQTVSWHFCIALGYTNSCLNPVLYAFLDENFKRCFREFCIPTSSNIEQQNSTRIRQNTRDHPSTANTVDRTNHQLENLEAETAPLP
Sequence of Human α2δ-1 subunit of Cav2.2 calcium channel (P54289 25-1103): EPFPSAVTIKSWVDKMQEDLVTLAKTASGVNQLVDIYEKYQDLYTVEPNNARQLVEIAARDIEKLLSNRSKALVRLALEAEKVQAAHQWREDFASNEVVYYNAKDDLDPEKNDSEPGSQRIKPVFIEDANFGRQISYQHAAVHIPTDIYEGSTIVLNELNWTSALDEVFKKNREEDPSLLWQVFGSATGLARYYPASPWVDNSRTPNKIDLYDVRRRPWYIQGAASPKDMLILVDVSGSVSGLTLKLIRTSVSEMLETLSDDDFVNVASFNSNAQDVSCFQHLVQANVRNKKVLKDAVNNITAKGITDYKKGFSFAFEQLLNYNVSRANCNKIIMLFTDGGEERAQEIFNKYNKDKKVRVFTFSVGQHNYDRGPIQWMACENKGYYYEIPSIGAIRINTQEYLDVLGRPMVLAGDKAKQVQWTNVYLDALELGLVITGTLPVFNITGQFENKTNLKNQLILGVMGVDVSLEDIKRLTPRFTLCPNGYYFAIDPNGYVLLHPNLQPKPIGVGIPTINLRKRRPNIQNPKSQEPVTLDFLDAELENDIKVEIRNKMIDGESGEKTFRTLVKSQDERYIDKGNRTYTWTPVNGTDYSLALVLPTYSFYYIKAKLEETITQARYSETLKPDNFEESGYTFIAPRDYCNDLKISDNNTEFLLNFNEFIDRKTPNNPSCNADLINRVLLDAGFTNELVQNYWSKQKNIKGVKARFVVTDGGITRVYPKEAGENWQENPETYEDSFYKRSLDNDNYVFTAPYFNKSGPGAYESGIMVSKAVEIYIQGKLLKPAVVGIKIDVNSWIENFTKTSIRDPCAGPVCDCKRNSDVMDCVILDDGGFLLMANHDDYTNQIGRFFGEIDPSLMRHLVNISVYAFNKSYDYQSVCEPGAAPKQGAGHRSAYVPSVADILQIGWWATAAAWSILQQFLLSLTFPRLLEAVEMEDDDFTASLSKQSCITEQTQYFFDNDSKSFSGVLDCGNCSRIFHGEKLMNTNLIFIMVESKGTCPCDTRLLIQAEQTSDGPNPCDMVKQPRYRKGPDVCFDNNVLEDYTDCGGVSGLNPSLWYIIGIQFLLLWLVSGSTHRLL

Compound | Ki [1, 2] | Ki (human μ-opioid receptor; [3]) | Ki [1] | Ki (human μ-opioid receptor)
Cc1nnc(N(C)C)c2nn(-c3ccccc3OC(CCN(C)Cc3ccccc3)Cc3ccccc3)c(C)c12 (stereo not shown) [Example 75, 2-(2-((4-(benzyl(methyl)amino)-1-phenylbutan-2-yl)oxy)phenyl)-N,N,3,4-tetramethyl-2H-pyrazolo[3,4-d]pyridazin-7-amine] | > 5000 nM | > 500 nM |  | 
CNCCC(Oc1ccccc1-n1nc2c(N(C)C)nnc(C)c2c1C)c1cccs1 (stereo not shown) [Example 78, N,N,3,4-Tetramethyl-2-(2-(3-(methylamino)-1-(thiophen-2-yl)propoxy)phenyl)-2H-pyrazolo[3,4-d]pyridazin-7-amine] |  |  | 500 to 5000 nM | 100 to 500 nM
CNCCC(Oc1ccccc1-n1nc2c(N(C)C)nnc(C)c2c1C)c1cccc(O)c1 (stereo not shown) [Example 79, 3-(1-(2-(7-(Dimethylamino)-3,4-dimethyl-2H-pyrazolo[3,4-d]pyridazin-2-yl)phenoxy)-3-(methylamino)propyl)phenol] |  |  | 500 to 5000 nM | 100 to 500 nM
CNCCC(Oc1ccc(N2CCCC2=O)cc1-n1nc2c(N(C)C)nnc(C)c2c1C)c1ccccc1 (stereo not shown) [Example 81, 1-(3-(7-(dimethylamino)-3,4-dimethyl-2H-pyrazolo[3,4-d]pyridazin-2-yl)-4-(3-(methylamino)-1-phenylpropoxy)phenyl)pyrrolidin-2-one] | > 5000 nM | > 500 nM |  | 
CNCCC(Oc1cc(C#N)ccc1-n1nc2c(N(C)C)nnc(C)c2c1C)c1ccccc1 (stereo not shown) [Example 85, 4-(7-(Dimethylamino)-3,4-dimethyl-2H-pyrazolo[3,4-d]pyridazin-2-yl)-3-(3-(methylamino)-1-phenylpropoxy)benzonitrile] | > 5000 nM | > 500 nM |  | 
CNCCC(Oc1ccc(C#N)cc1-n1nc2c(N(C)C)nnc(C)c2c1C)c1ccccc1 (stereo not shown) [Example 86, 3-(7-(dimethylamino)-3,4-dimethyl-2H-pyrazolo[3,4-d]pyridazin-2-yl)-4-(3-(methylamino)-1-phenylpropoxy)benzonitrile] | > 5000 nM | > 500 nM |  | 
CCOc1ccc(-n2nc3c(N(C)C)nnc(C)c3c2C)c(OC(CCNC)c2ccccc2)c1 (stereo not shown) [Example 87, 2-(4-Ethoxy-2-(3-(methylamino)-1-phenylpropoxy)phenyl)-N,N,3,4-tetramethyl-2H-pyrazolo[3,4-d]pyridazin-7-amine] |  |  | < 500 nM | > 500 nM
CCOc1ccc(OC(CCNC)c2ccccc2)c(-n2nc3c(N(C)C)nnc(C)c3c2C)c1 (stereo not shown) [Example 89, 2-(5-ethoxy-2-(3-(methylamino)-1-phenylpropoxy)phenyl)-N,N,3,4-tetramethyl-2H-pyrazolo[3,4-d]pyridazin-7-amine] | 500 to 5000 nM | > 500 nM |  | 
CCOc1cccc(C(CCNC)Oc2ccccc2-n2nc3c(N(C)C)nnc(C)c3c2C)c1 (stereo not shown) [Example 90, 2-(2-(1-(3-ethoxyphenyl)-3-(methylamino)propoxy)phenyl)-N,N,3,4-tetramethyl-2H-pyrazolo[3,4-d]pyridazin-7-amine] | 500 to 5000 nM | > 500 nM |  | 
CNCCC(Oc1ccccc1-n1nc2c(N(C)C)nnc(C)c2c1C)c1cccc(C(N)=O)c1 (stereo not shown) [Example 91, 3-(1-(2-(7-(Dimethylamino)-3,4-dimethyl-2H-pyrazolo[3,4-d]pyridazin-2-yl)phenoxy)-3-(methylamino)propyl)benzamide] | 500 to 5000 nM | > 500 nM |  | 
CNCCC(Oc1ccccc1-n1nc2c(N(C)C)nnc(C)c2c1C)c1ccc(C(N)=O)cc1 (stereo not shown) [Example 92, 4-(1-(2-(7-(dimethylamino)-3,4-dimethyl-2H-pyrazolo[3,4-d]pyridazin-2-yl)phenoxy)-3-(methylamino)propyl)benzamide] | 500 to 5000 nM | > 500 nM |  | 
CNCCC(Oc1ccc(C(N)=O)cc1-n1nc2c(N(C)C)nnc(C)c2c1C)c1ccccc1 (stereo not shown) [Example 93, 3-(7-(dimethylamino)-3,4-dimethyl-2H-pyrazolo[3,4-d]pyridazin-2-yl)-4-(3-(methylamino)-1-phenylpropoxy)benzamide] | > 5000 nM | > 500 nM |  | 
CNCCC(Oc1cc(C(N)=O)ccc1-n1nc2c(N(C)C)nnc(C)c2c1C)c1ccccc1 (stereo not shown) [Example 94, 4-(7-(dimethylamino)-3,4-dimethyl-2H-pyrazolo[3,4-d]pyridazin-2-yl)-3-(3-(methylamino)-1-phenylpropoxy)benzamide] | > 5000 nM | > 500 nM |  | 
CNCCC(Oc1cc(C(=O)N(C)C)ccc1-n1nc2c(N(C)C)nnc(C)c2c1C)c1ccccc1 (stereo not shown) [Example 95] | 500 to 5000 nM | > 500 nM |  | 
CNCCC(Oc1ccc(C(=O)N(C)C)cc1-n1nc2c(N(C)C)nnc(C)c2c1C)c1ccccc1 (stereo not shown) [Example 96, 3-(7-(Dimethylamino)-3,4-dimethyl-2H-pyrazolo[3,4-d]pyridazin-2-yl)-N,N-dimethyl-4-(3-(methylamino)-1-phenylpropoxy)benzamide] | > 5000 nM | > 500 nM |  | 
CNCCC(Oc1ccc(O)cc1-n1nc2c(N(C)C)nnc(C)c2c1C)c1ccccc1 (stereo not shown) [Example 97, 3-(7-(Dimethylamino)-3,4-dimethyl-2H-pyrazolo[3,4-d]pyridazin-2-yl)-4-(3-(methylamino)-1-phenylpropoxy)phenol] | 500 to 5000 nM | > 500 nM |  | 

The next lines start with results.

Ki [1, 2] | Ki (human μ-opioid receptor; [3]) | Compound | Ki [1] | Ki (human μ-opioid receptor)
500 to 5000 nM | > 500 nM | CNCC(Cc1ccccc1)Oc1ccccc1-n1nc2c(N(C)C)nnc(C)c2c1C (stereo not shown) [Example 76, N,N,3,4-Tetramethyl-2-(2-((1-(methylamino)-3-phenylpropan-2-yl)oxy)phenyl)-2H-pyrazolo[3,4-d]pyridazin-7-amine] |  | 
500 to 5000 nM | > 500 nM | CNCCC(Cc1ccccc1)Oc1ccccc1-n1nc2c(N(C)C)nnc(C)c2c1C (stereo not shown) [Example 77, N,N,3,4-tetramethyl-2-(2-((4-(methylamino)-1-phenylbutan-2-yl)oxy)phenyl)-2H-pyrazolo[3,4-d]pyridazin-7-amine] |  | 
500 to 5000 nM | > 500 nM | CNCCC(Oc1cc(N2CCCC2=O)ccc1-n1nc2c(N(C)C)nnc(C)c2c1C)c1ccccc1 (stereo not shown) [Example 80, 1-(4-(7-(Dimethylamino)-3,4-dimethyl-2H-pyrazolo[3,4-d]pyridazin-2-yl)-3-(3-(methylamino)-1-phenylpropoxy)phenyl)pyrrolidin-2-one] |  | 
500 to 5000 nM | > 500 nM | CNCCC(Oc1cc(NC(C)=O)ccc1-n1nc2c(N(C)C)nnc(C)c2c1C)c1ccccc1 (stereo not shown) [Example 82, N-(4-(7-(dimethylamino)-3,4-dimethyl-2H-pyrazolo[3,4-d]pyridazin-2-yl)-3-(3-(methylamino)-1-phenylpropoxy)phenyl)acetamide] |  | 
500 to 5000 nM | > 500 nM | CNCCC(Oc1ccc(NC(C)=O)cc1-n1nc2c(N(C)C)nnc(C)c2c1C)c1ccccc1 (stereo not shown) [Example 83, N-(3-(7-(dimethylamino)-3,4-dimethyl-2H-pyrazolo[3,4-d]pyridazin-2-yl)-4-(3-(methylamino)-1-phenylpropoxy)phenyl)acetamide] |  | 
500 to 5000 nM | > 500 nM | CNCCC(Oc1ccccc1-n1nc2c(N(C)C)nnc(C)c2c1C)c1cccc(NC(C)=O)c1 (stereo not shown) [Example 84, N-(3-(1-(2-(7-(dimethylamino)-3,4-dimethyl-2H-pyrazolo[3,4-d]pyridazin-2-yl)phenoxy)-3-(methylamino)propyl)phenyl)acetamide] |  | 
500 to 5000 nM | > 500 nM | CNCCC(Oc1ccc(OC)cc1-n1nc2c(N(C)C)nnc(C)c2c1C)c1ccccc1 (stereo not shown) [Example 88, 2-(5-methoxy-2-(3-(methylamino)-1-phenylpropoxy)phenyl)-N,N,3,4-tetramethyl-2H-pyrazolo[3,4-d]pyridazin-7-amine] |  | 
